Data from US8501734B2, “Medical intervention in haematological cancers” (Oncotyrol-Center for Personalized Cancer Medicine GmbH …, priority 2008, dated 2013).

How the values were obtained:
[1] = tested on: human epidermoid carcinoma cell line A431; test: Apoptosis induction in A431 cells; type: cell-based
Protocol: (§1) After treatment adherent cells were trypsinized (as described before), and resuspended in corresponding full medium. Suspension cells or trypsinized adherent cells, supernatant and washing solution (1×PBS from washing before trypsinization) were pooled and then spun down (300 g for 3 min) washed in 2 ml and resuspended in 1000 of annexin V binding buffer and mixed with 2 μg/ml annexin V-Allophycocyanin (APC) (BD-Pharmingen, San Diego, Calif., USA) and 50 ng/ml of propidium iodide (PI; Sigma Aldrich). At least 10.000 cells were measured per sample using a Becton Dickinson FACSCalibur flow Cytometer (San Jose, Calif., USA). Percentage of Annexin V negative and PI negative cells were depicted in the figures. […] Briefly, BMMCs were stained with a mixture of annexin V/FITC (Alexis Coorp., Laeufelfingen, Switzerland), propidium iodide (Sigma), anti-CD38-PE and anti-CD45-PC5 for 15 min at room temperature and immediately analyzed by flow cytometry. The percentages of viable cells (i.e. cells negative for annexin V/FITC and PI) within the MM (CD38^posCD45^low/absent) and non-MM fraction (CD38^neg/CD45^pos) were determined by flow cytometry.
(§2) Adherent cells were grown in 24-well plates to confluence and treated with 40 μg/ml Imiquimod® for 24 h. Cells were then trypsinized, suspended in full medium, stained for AnnexinV/PI and apoptosis was measured as described before. […]

[2] = tested on: OPM2 cells; test: Annexin V/PI apoptosis assay (FACS), OPM2 cells; type: cell-based; parameters: apoptosis induction: unit not given here
Protocol: (§3) After treatment adherent cells were trypsinized (as described before), and resuspended in corresponding full medium. Suspension cells or trypsinized adherent cells, supernatant and washing solution (1×PBS from washing before trypsinization) were pooled and then spun down (300 g for 3 min) washed in 2 ml and resuspended in 1000 of annexin V binding buffer and mixed with 2 μg/ml annexin V-Allophycocyanin (APC) (BD-Pharmingen, San Diego, Calif., USA) and 50 ng/ml of propidium iodide (PI; Sigma Aldrich). At least 10.000 cells were measured per sample using a Becton Dickinson FACSCalibur flow Cytometer (San Jose, Calif., USA). Percentage of Annexin V negative and PI negative cells were depicted in the figures. For the analysis of the pro-apoptotic activity of Imiquimod® in primary MM cells and non-malignant BMMCs, 5×10^5 cells BMMCs cells were treated with or without 40 μg/ml Imiquimod® for the indicated time periods. Cells were then harvested and washed twice with PBS. Detection of apoptotic cells was performed using the annexin V/PI assay according to manufacturers' instruction. Briefly, BMMCs were stained with a mixture of annexin V/FITC (Alexis Coorp., Laeufelfingen, Switzerland), propidium iodide (Sigma), anti-CD38-PE and anti-CD45-PC5 for 15 min at room temperature and immediately analyzed by flow cytometry. The percentages of viable cells (i.e. cells negative for annexin V/FITC and PI) within the MM (CD38^posCD45^low/absent) and non-MM fraction (CD38^neg/CD45^pos) were determined by flow cytometry.
Cells were cultured as described before and, treated with 40 μg/ml Imiquimod® or Gardiquimod® for 24 h, and apoptosis was assayed by AnnexinV/PI staining and FACS analysis.
(§4) Adherent cells were grown in 24-well plates to confluence and treated with 40 μg/ml Imiquimod® for 24 h. Cells were then trypsinized, suspended in full medium, stained for AnnexinV/PI and apoptosis was measured as described before. Suspension cells (250.000) were treated with 40 μg/ml Imiquimod® for 24 h, stained for Annexin/PI and apoptosis was measured as described above (Annexin V/Propidium Iodide apoptosis Assay).
OPM-2 and U266 cells (2.5×10^5 in 500 μl) were treated with either Imiquimod® alone (10 μg/500 μl), various inhibitors/drugs alone or with the combination of Imiquimod® and inhibitors for 24 or 48 h. In the controls the solvent of the drug has been added in appropriate amounts. Cells were then AnnexinV/PI stained and apoptosis measured as described before.

[3] = tested on: NCI cells; test: Annexin V/PI apoptosis assay, NCI cells; type: cell-based; settings: 40 μg/ml, 24 h
Protocol: as §1, §2

[4] = tested on: TLR7 pathway; test: TLR pathway activation: IRAK1 and IκB degradation by Western blot in OPM2 cells; type: cell-based; settings: OPM2 cells, 10, 20 or 40 μg/ml over night
Protocol: Cells were lysed in lysis-IP-Buffer supplemented with protease inhibitors and sodium orthovanadate. 10 μg of lysate were separated by SDS-PAGE (10% polyacrylamide) and transferred to methanol activated Hypond-P PVDF-membranes (Amersham, Freiburg, Germany) by semi-dry blotting. Membranes were blocked in a 3% bovine serum albumin solution or 5% non fat dry milk solution in phosphate buffered saline (PBS) with 0.1% Tween 20 (PBT). Primary antibodies were applied in blocking solution for 1 h at room temperature or over night at 4° C. Membranes were washed in PBT and incubated with corresponding secondary antibodies in 5% non fat dry milk in PBT for 1 h at room temperature. Cells were washed with PBT, incubated with ECL solution and exposed in a Fluorchem 5500 (Biozym, Oldendorf, Germany).
OPM2 cells were suspended in full medium and cultured in 24-well plates at a cell density of 500.000 cells/ml and well. Cells were left untreated (control) or treated over night with different concentrations of Imiquimod® (10, 20 or 40 μg/ml).
OPM2 cells were cultured in 24-well plates as described above. Imiquimod® (40 μg/ml) was added to cells (except controls) for different time periods (2, 4, 6 and 8 h) and the extent of PARP1 cleavage, IRAK1, IkB-α and IkB-β degradation were determined by Western blot. α-Tubulin was used as a loading control.

[5] = tested on: squamous cell carcinoma cells; settings: 50 μg/ml, 24 h; cited from earlier work
[6] = tested on: multiple myeloma cell lines; test: Annexin V/PI apoptosis assay, multiple myeloma cell line panel; type: cell-based; settings: 24 h
Protocol: as §3, §4

[7] = tested on: OPM-2 cells xenograft; type: in vivo, NIH III-nude mice
Protocol: Average tumor diameter and mouse body weight was measured every 3rd day.
Treatment was started when tumors reached an average diameter of 0.8 cm and mice were sacrificed when the tumor reached an average diameter of 1.5 cm. A maximum volume of 150 μl of Imiquimod®, in a concentration of 2.5 mg/ml in H2O, was injected subcutaneously into the left flank of the mice. The same amount of H2O was injected in the same way into control mice. Tumor volume was calculated with the formula 4π/3×(width/2)2×(length/2).

[8] = tested on: OPM2 cells; test: Growth of OPM2 cells under multiple low doses (cell counting); type: cell-based
Protocol: 2×10^5 OPM2 cells in 1 ml of full medium were cultured in 24-well plates in duplicates for 8 days. For the first three days the appropriate amount of Imiquimod® (1, 2, 5, 5, or 10 μg/ml) was added daily. For determination of absolute cell numbers 100 μl of cell suspension were taken on days 1-5 and day 8 and cell number was determined using the CASY Cell Counter Model DT (Schärfe System GmbH, Reutlingen, Germany). On the fourth day cells were spun down (200 g, 2 min) and 600 μl of the remaining 700 μl of supernatant (100 μl were left to keep cell pellet undisturbed) were removed and 600 μl of fresh full medium was added to the cell culture.

## CC(C)Cn1cnc2c(N)nc3ccccc3c21 [Imiquimod, 1-(2-methylpropyl)-1H-imidazo[4,5-c]quinolin-4-amine]
[1]
  apoptosis induction: no significant apoptosis induction
[2]; OPM2 cells, 24 h, Imi 20 μg/ml alone
  apoptosis induction: +
[2]; OPM2 cells, 24 h, Imiquimod 20 μg/ml or Akt inhibitor alone
  apoptosis induction, single agent: some apoptosis
[2]; OPM2 cells, 48 h, Imi 20 μg/ml alone
  apoptosis induction: ++
[2]; multiple myeloma cells, 10 μg/ml, 24 h
  apoptosis induction: apoptosis induction
[2]; multiple myeloma cells, 40 μg/ml
  apoptosis induction in AnnexinV/PI FACS analysis assay: 70%
[3]
  apoptotic cells: 90%
[4]
  IRAK1 degradation: degraded in a concentration-dependent manner
  IκB-α degradation: degraded in a concentration dependent manner
[5]
  apoptotic cells: 17.3%
[6]; OPM2, LP-1, RPMI, U266, Imiquimod 20 μg/ml or Akti1/2 5 or 10 μM alone
  apoptosis induction, single agent: some apoptosis
[6]; OPM2, U266, LP1, NCI, 40 μg/ml
  sensitivity (apoptosis): sensitive
[7]; 10 mg/kg s.c. twice daily
  changes in tumor volume: ranging from tumor regression and stagnation, via slower growth to increase in tumor volume comparable to controls
  histological analysis of tumors (haematoxylin and eosin): regions of massive tissue destruction
  tumor regression: 5 cases
  weight development, treated versus control mice: no difference
[7]; 10 mg/kg s.c. twice daily vs H2O, p=0.027, t-test
  survival of treated mice: significantly increased
[7]; 10 mg/kg s.c. twice daily, besides scars at the injection site
  side effects: no obvious side effects could be observed
[8]; 3-times given dose of 10 μg/ml
  cell growth inhibition: sufficient to irreversibly inhibit cell growth
[8]; triple treatment with 5 μg/ml
  cell growth inhibition: sufficient to significantly block the growth potential
